This note sets out measurements from US10844044B2 (Vanderbilt University, priority 2018, dated 2020).

Like-named read-outs stand apart in the source and are kept apart here.

Assay [1] has as its system MV4:11 human cancer cell lines. As to the kind of experiment: Anti-proliferative activity, CellTiter-Glo viability assay, 7 day protocol. Type of assay: cell-based. As to conditions: MV4:11 cells, 7 day incubation, read-out: GI50 on cellular proliferation of MV4:11 human cancer cell lines. The protocol: Viability assays are performed by dispensing […] into each well of an opaque 384-well plate and adding compounds at the indicated concentrations in a final volume of 32 μL and a final concentration of DMSO of 0.1% for all samples. After a set incubation period, 7 day protocol, the viability of cells in each well is assessed using the CellTiter-Glo assay (Promega), read on a GloMax 96 Microplane Luminometer (Promega). Serial dilutions of each cell type are included in all assays to generate standard curves and determine assay measurements are taken within the dynamic range of the instrument. GI50 values are calculated based on three biological replicates, each with three technical replicates. Data are expressed as mean plus/minus S.E.M.

In assay [2] the target is WDR5 (Homo sapiens (Human), UniProt P61964). As to the kind of experiment: TR-FRET binding assay (displacement of 10mer-Thr-FAM probe from WDR5). As to conditions: read-out: Ki for Inhibition of WDR5 by TR-FRET assay.
The mark [3] stands for this setting: TR-FRET, 10mer-Thr-FAM probe, WDR5-His tag 2 nM, pH 7.0.

On to “3-(1-Ethyl-3-(trifluoromethyl)-1H-pyrazol-4-yl)-5-((2-iminooxazolidin-3-yl)methyl)-N-(1-methyl-6-oxo-1,6-dihydropyridin-3-yl)methyl)benzamide [Example 293]”, for which, in assay [1], the GI50 was 480 nM. Moreover, the Ki in assay [2] came to 0.54 nM.

For `COc1cc(OC)cc([C@@H](NC(=O)c2cc(Cn3ccoc3=N)cc(-c3ccc(F)cc3Cl)c2)C2CC2)c1` (stereo in doubt) [Example 249, 2′-Chloro-N-(cyclopropyl(3,5-dimethoxyphenyl)methyl)-4′-fluoro-5-((2-iminooxazol-3(2H)-yl)methyl)-[1,1′-biphenyl]-3-carboxamide], in assay [1] (Homo sapiens, MV4-11, 168 h), the GI50 was found to be 370 nM. Moreover, the Ki in assay [2] (setting [3]) is below 0.1 nM.

Take `Cc1nc(F)ccc1-c1cc(Cn2ccn(C)c2=N)cc(C(=O)NCc2ccc(Cl)c(Cl)c2)c1` [Example 1, N-(3,4-Dichlorobenzyl)-3-(6-fluoro-2-methylpyridin-3-yl)-5-((2-imino-3-methyl-2,3-dihydro-1H-imidazol-1-yl)methyl)benzamide]: in assay [1] (Homo sapiens, MV4-11, 168 h), the GI50 was 300 nM. Besides, the inhibition constant (Ki) in assay [2] (setting [3]) was below 0.1 nM.

On to `Cc1ccnc(C(NC(=O)c2cc(Cn3ccn(C)c3=N)cc(-c3ccc(F)nc3C)c2)C2CC2)c1` (stereo not drawn) [Example 3, N-(Cyclopropyl(4-methylpyridin-2-yl)methyl)-3-(6-fluoro-2-methylpyridin-3-yl)-5-((2-imino-3-methyl-2,3-dihydro-1H-imidazol-1-yl)methyl)benzamide], for which, in assay [1] (Homo sapiens, MV4-11, 168 h), the GI50 was 550 nM. Moreover, in assay [2] (setting [3]), the inhibitory constant (Ki) is below 0.1 nM.

As to `COc1ccnc(CNC(=O)c2cc(Cn3ccn(C)c3=N)cc(-c3ccncc3C)c2)c1` [Example 8, 3-((2-Imino-3-methyl-2,3-dihydro-1H-imidazol-1-yl)methyl)-N-((4-methoxypyridin-2-yl)methyl)-5-(3-methylpyridin-4-yl)benzamide], in assay [1] (Homo sapiens, MV4-11, 168 h), the GI50 amounted to 170 nM. For the same molecule, in assay [2] (setting [3]), the Ki turned out to be 0.27 nM.

Consider `Cc1ccnc(C(NC(=O)c2cc(Cn3ccn(C)c3=N)cc(-c3ccc(F)cc3C)c2)C2CC2)c1` (stereo not drawn) [Example 9, N-(Cyclopropyl(4-methylpyridin-2-yl)methyl)-4′-fluoro-5-((2-imino-3-methyl-2,3-dihydro-1H-imidazol-1-yl)methyl)-2′-methyl-[1,1′-biphenyl]-3-carboxamide], for which the GI50 in assay [1] (Homo sapiens, MV4-11, 168 h) is 220 nM. Moreover, the Ki in assay [2] (setting [3]) worked out at 0.15 nM.

With `COc1ccnc(CNC(=O)c2cc(Cn3ccn(C)c3=N)cc(-c3cc(C)ccc3OC)c2)c1` [Example 10, 5-((2-Imino-3-methyl-2,3-dihydro-1H-imidazol-1-yl)methyl)-2′-m ethoxy-N-((4-methoxypyridin-2-yl)methyl)-5′-methyl-[1,1′-biphenyl]-3-carboxamide], the GI50 in assay [1] (Homo sapiens, MV4-11, 168 h) stood at 2300 nM. Further, the Ki in assay [2] (setting [3]) worked out at 1.5 nM.

In the case of `Cc1cnccc1-c1cc(Cn2ccn(C)c2=N)cc(C(=O)NCc2ccc(Cl)c(Cl)c2)c1` [Example 25, N-(3,4-dichlorobenzyl)-3-((2-imino-3-methyl-2,3-dihydro-1H-imidazol-1-yl)methyl)-5-(3-methylpyridin-4-yl)benzamide], the GI50 in assay [1] (Homo sapiens, MV4-11, 168 h) was found to be 6100 nM. Further, the Ki in assay [2] (setting [3]) came to 1.3 nM.

Take `Cc1ccc2[nH]ncc2c1-c1cc(Cn2ccn(C)c2=N)cc(C(=O)NCc2ccc(Cl)c(Cl)c2)c1` [Example 27, N-(3,4-Dichlorobenzyl)-3-((2-imino-3-methyl-2,3-dihydro-1H-imidazol-1-yl)methyl)-5-(5-methyl-1H-indazol-4-yl)benzamide]: the GI50 in assay [1] (Homo sapiens, MV4-11, 168 h) was 3100 nM. Further, the Ki in assay [2] (setting [3]) was 1.5 nM.

With `Cc1cc(F)cc(F)c1-c1cc(Cn2ccn(C)c2=N)cc(C(=O)NCc2ccc(Cl)c(Cl)c2)c1` [Example 28, N-(3,4-Dichlorobenzyl)-2′,4′-difluoro-5-((2-imino-3-methyl-2,3-dihydro-1H-imidazo-1-yl)methyl)-6′-methyl-[1,1′-biphenyl]-3-carboxamide], the GI50 in assay [1] (Homo sapiens, MV4-11, 168 h) amounted to 1300 nM. The inhibitory constant (Ki) in assay [2] (setting [3]) was 0.35 nM.

`Cc1cc(CNC(=O)c2cc(Cn3ccn(C)c3=N)cc(-c3c(C)ccc4[nH]ncc34)c2)ccc1Cl` [Example 33, N-(4-Chloro-3-methylbenzyl)-3-((2-imino-3-methyl-2,3-dihydro-1H-imidazol-1-yl)methyl)-5-(5-methyl-1H-indazol-4-yl)benzamide]: in assay [1] (Homo sapiens, MV4-11, 168 h), the GI50 turned out to be 4900 nM. The inhibitory constant (Ki) in assay [2] (setting [3]) was 0.99 nM.

For `COc1cc(CN(C)C(=O)c2cc(Cn3ccn(C)c3=N)cc(-c3c(C)ccc4[nH]ncc34)c2)cc(OC)c1` [Example 34, N-(3,5-Dimethoxybenzyl)-3-((2-imino-3-methyl-2,3-dihydro-1H-imidazol-1-yl)methyl)-N-methyl-5-(5-methyl-1H-indazol-4-yl)benzamide], in assay [1] (Homo sapiens, MV4-11, 168 h), the GI50 was 30000 nM. The inhibition constant Ki in assay [2] (setting [3]) was 16 nM.

As for `COc1cc(CNC(=O)c2cc(Cn3ccn(C)c3=N)cc(-c3c(C)ccc4[nH]ncc34)c2)cc(OC)c1` [Example 35, N-(3,5-Dimethoxybenzyl)-3-((2-imino-3-methyl-2,3-dihydro-1H-imidazol-1-yl)methyl)-5-(5-methyl-1H-indazol-4-yl)benzamide], the GI50 in assay [1] (Homo sapiens, MV4-11, 168 h) was 9000 nM. Also, the Ki in assay [2] (setting [3]) was 1.3 nM.

Take `Cc1ccnc(C(NC(=O)c2cc(Cn3ccn(C)c3=N)cc(-c3cccnc3C)c2)C2CC2)c1` (stereo not drawn) [Example 37, N-(Cyclopropyl(4-methylpyridin-2-yl)methyl)-3-((2-imino-3-methyl-2,3-dihydro-1H-imidazol-1-yl)methyl)-5-(2-methylpyridin-3-yl)benzamide]: in assay [1] (Homo sapiens, MV4-11, 168 h), the GI50 amounted to 3800 nM. The inhibition constant (Ki) in assay [2] (setting [3]) was found to be 0.4 nM.

As for `Cc1cc(CNC(=O)c2cc(Cn3ccn(C)c3=N)cc(-c3cccnc3C)c2)ncn1` [Example 38, 3-((2-Imino-3-methyl-2,3-dihydro-1H-imidazol-1-yl)methyl)-5-(2-methylpyridin-3-yl)-N-((6-methylpyrimidin-4-yl)methyl)benzamide], the GI50 in assay [1] (Homo sapiens, MV4-11, 168 h) was determined as 6000 nM. For the same molecule, in assay [2] (setting [3]), the Ki turned out to be 3.7 nM.

On to `Cc1ncccc1-c1cc(Cn2ccn(C)c2=N)cc(C(=O)NC(C2CC2)C2CC2)c1` [Example 39, N-(Dicyclopropylmethyl)-3-((2-imino-3-methyl-2,3-dihydro-1H-imidazol-1-yl)methyl)-5-(2-methylpyridin-3-yl)benzamide], for which, in assay [1] (Homo sapiens, MV4-11, 168 h), the GI50 came out at 30000 nM. Besides, the Ki in assay [2] (setting [3]) was determined as 17 nM.

On to `Cc1cc(C)nc(CNC(=O)c2cc(Cn3ccn(C)c3=N)cc(-c3cccnc3C)c2)n1` [Example 42, N-((4,6-Dimethylpyrimidin-2-yl)methyl)-3-((2-imino-3-methyl-2,3-dihydro-1H-imidazol-1-yl)methyl)-5-(2-methylpyridin-3-yl)benzamide], for which, in assay [1] (Homo sapiens, MV4-11, 168 h), the GI50 amounted to 28000 nM. Also, the inhibition constant (Ki) in assay [2] (setting [3]) stood at 10 nM.

On to `Cc1ncccc1-c1cc(Cn2ccn(C)c2=N)cc(C(=O)NCc2ncc(Cl)cn2)c1` [Example 44, N-((5-Chloropyrimidin-2-yl)methyl)-3-((2-imino-3-methyl-2,3-dihydro-1H-imidazol-1-yl)methyl)-5-(2-methylpyridin-3-yl)benzamide], for which the GI50 in assay [1] (Homo sapiens, MV4-11, 168 h) turned out to be 22000 nM. Moreover, the Ki in assay [2] (setting [3]) is 9.2 nM.

On to `Cc1cc(CNC(=O)c2cc(Cn3ccn(C)c3=N)cc(-c3cccc4[nH]nc(C)c34)c2)ccc1Cl` [Example 46, N-(4-chloro-3-methylbenzyl)-3-((2-imino-3-methyl-2,3-dihydro-1H-imidazol-1-yl)methyl)-5-(3-methyl-1H-indazol-4-yl)benzamide], for which the GI50 in assay [1] (Homo sapiens, MV4-11, 168 h) was found to be 5900 nM. Also, in assay [2] (setting [3]), the inhibition constant Ki is 1.3 nM.

`Cc1ccnc(C(NC(=O)c2cc(Cn3ccn(C)c3=N)cc(-c3c(C)ccc4[nH]ncc34)c2)C2CC2)c1` (stereo not drawn) [Example 47, N-(cyclopropyl(4-methylpyridin-2-yl)methyl)-3-((2-imino-3-methyl-2,3-dihydro-1H-imidazol-1-yl)methyl)-5-(5-methyl-1H-indazol-4-yl)benzamide]: the GI50 in assay [1] (Homo sapiens, MV4-11, 168 h) was 6700 nM. Besides, the Ki in assay [2] (setting [3]) worked out at 0.88 nM.

Regarding `CCn1cc(-c2cc(CN3CCOC3=N)cc(C(=O)N[C@H](c3ccc(F)c(C)c3)C3CC3)c2)c(C(F)(F)F)n1` [Example 276, (S)—N-(Cyclopropyl(4-fluoro-3-methylphenyl)methyl)-3-(1-ethyl-3-(trifluoromethyl) H-pyrazol-4-yl)-5-((2-iminooxazolidin-3-yl)methyl)benzamide], the GI50 in assay [1] (Homo sapiens, MV4-11, 168 h) was below 100 nM.

Consider `CCn1cc(-c2cc(Cn3ccoc3=N)cc(C(=O)NCc3ccc(=O)n(C)c3)c2)c(C(F)(F)F)n1` [Example 292, 3-(1-Ethyl-3-(trifluoromethyl)-1H-pyrazol-4-yl)-5-((2-iminooxazol-3(2H)-yl)methyl)-N-((1-methyl-6-oxo-1,6-dihydropyridin-3-yl)methyl)benzamide], for which the GI50 in assay [1] (Homo sapiens, MV4-11, 168 h) was found to be 710 nM.

As to `COc1cc(CNC(=O)c2cc(Cn3ccsc3=N)cc(-c3ccc(F)cc3C)c2)cc(OC)c1` [Example 307, N-(3,5-Dimethoxybenzyl)-4′-fluoro-5-((2-iminothiazol-3(2H)-yl)methyl)-2′-methyl-[1,1′-biphenyl]-3-carboxamide], the GI50 in assay [1] (Homo sapiens, MV4-11, 168 h) was 910 nM.

In the case of `Cc1nc(F)ccc1-c1cc(CN2CCCC2=N)cc(C(=O)NCc2ccc(Cl)c(Cl)c2)c1` [Example 331, N-(3,4-Dichlorobenzyl)-3-(6-fluoro-2-methylpyridin-3-yl)-5-((2-iminopyrrolidin-1-yl)methyl)benzamide], the GI50 in assay [1] (Homo sapiens, MV4-11, 168 h) is 950 nM.

Regarding `Cc1cc(-c2cc(CN3CCCC3=N)cc(C(=O)NCc3ccc(Cl)c(Cl)c3)c2)c(C)cc1F` [Example 332, N-(3,4-Dichlorobenzyl)-4′-fluoro-5-((2-iminopyrrolidin-1-yl)methyl)-2′,5′-dimethyl-[1,1′-biphenyl]-3-carboxamide], the GI50 in assay [1] (Homo sapiens, MV4-11, 168 h) came to 1400 nM.
